According to ChEMBL document CHEMBL5108065 (J Med Chem, 2022):
Values after ≈ are worked out from the molar mass of the structure shown.

Tests used:
[1] = Solubility of the compound in FeSSIF at pH 5.8; assay type: physicochemical; conditions: simulated gi fluid
[2] = target: Plasmepsin X (Plasmodium falciparum (isolate 3D7), UniProt Q8IAS0); experiment: biochemical
Description: Inhibition of Plasmodium falciparum recombinant C-terminal TEV cleavable 8his-tagged PMX by FRET assay

[3] = target: Cathepsin D (Homo sapiens, UniProt P07339); experiment: Inhibition of human cathepsin D
[4] = Metabolic stability in human hepatocytes assessed as intrinsic clearance measured per 10^6 cells; assay type: functional, Hepatocyte
[5] = species on record: Homo sapiens; experiment: Inhibition of BACE (unknown origin) at 10 uM relative to control
[6] = Lipophilicity, log D of the compound; assay type: physicochemical; conditions: octanol/water
[7] = target: T1, Renin (Homo sapiens, UniProt P00797); experiment: Inhibition of human renin
T1 sequence (P00797 whole entry): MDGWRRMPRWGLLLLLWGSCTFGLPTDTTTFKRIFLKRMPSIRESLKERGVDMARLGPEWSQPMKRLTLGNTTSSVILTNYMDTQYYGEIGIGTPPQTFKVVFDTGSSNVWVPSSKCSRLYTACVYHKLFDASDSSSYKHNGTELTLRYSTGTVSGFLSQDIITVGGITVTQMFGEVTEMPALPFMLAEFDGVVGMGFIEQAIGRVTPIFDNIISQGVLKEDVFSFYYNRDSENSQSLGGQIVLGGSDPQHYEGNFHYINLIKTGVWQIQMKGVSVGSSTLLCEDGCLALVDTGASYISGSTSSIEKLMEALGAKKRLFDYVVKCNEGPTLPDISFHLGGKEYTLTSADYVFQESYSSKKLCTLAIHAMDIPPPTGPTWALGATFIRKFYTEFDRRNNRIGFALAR

[8] = Inhibition of BACE (unknown origin); design: species or system Homo sapiens
[9] = Inhibition of Plasmodium falciparum PMV by FRET assay
[10] = system: Plasmodium falciparum; experiment: Antimalarial activity against DSM265 resistant Plasmodium falciparum Dd2 harbouring pf-dhodh mutated loci assessed as inhibition of parasite growth pretreated for 48 hrs followed by [3H]-hypoxanthine addition measured after 24 hrs by scintillation counting method; assay type: functional, organism-based
[11] = system: Plasmodium falciparum; experiment: Antimalarial activity against DDD107498 resistant Plasmodium falciparum Dd2 harbouring pfeef2 mutated loci assessed as inhibition of parasite growth pretreated for 48 hrs followed by [3H]-hypoxanthine addition measured after 24 hrs by scintillation counting method; assay type: functional, organism-based
[12] = system: Plasmodium falciparum; experiment: Antimalarial activity against Plasmodium falciparum TM90C2b harbouring Pf-crt, Pf-mdrl,Pfd-hfr, Pf-cytbQ0 mutated loci assessed as inhibition of parasite growth pretreated for 48 hrs followed by [3H]-hypoxanthine addition measured after 24 hrs by scintillation counting method; assay type: functional, organism-based
[13] = system: Plasmodium falciparum; experiment: Antiplasmodial activity against sensitive Plasmodium falciparum NF54 infected in human red blood cells assessed as reduction in [3H]-hypoxanthine incorporation pretreated for 48 hrs followed by [3H]-hypoxanthine addition measured after 24 hrs by scintillation counting method; assay type: functional, organism-based
[14] = system: Plasmodium falciparum; experiment: Antimalarial activity against ELQ300 resistant Plasmodium falciparum Dd2 harbouring pfcytB mutated loci assessed as inhibition of parasite growth pretreated for 48 hrs followed by [3H]-hypoxanthine addition measured after 24 hrs by scintillation counting method; assay type: functional, organism-based
[15] = system: Plasmodium falciparum; experiment: Antimalarial activity against Plasmodium falciparum Dd2048 harbouring pfpi4k mutated loci assessed as inhibition of parasite growth pretreated for 48 hrs followed by [3H]-hypoxanthine addition measured after 24 hrs by scintillation counting method; assay type: functional, organism-based
[16] = system: Plasmodium falciparum; experiment: Antimalarial activity against Plasmodium falciparum K1 harbouring Pf-crt, Pf-mdrl,Pf-dhfr, Pf-dhps mutated loci assessed as inhibition of parasite growth pretreated for 48 hrs followed by [3H]-hypoxanthine addition measured after 24 hrs by scintillation counting method; assay type: functional, organism-based
[17] = Inhibition of Plasmodium vivax PMX by FRET assay
[18] = system: Plasmodium falciparum; experiment: Antimalarial activity against KAF156 resistant Plasmodium falciparum Dd2 harbouring pf-carl mutated loci assessed as inhibition of parasite growth pretreated for 48 hrs followed by [3H]-hypoxanthine addition measured after 24 hrs by scintillation counting method; assay type: functional, organism-based

Chain of Plasmepsin X (Q8IAS0 whole entry): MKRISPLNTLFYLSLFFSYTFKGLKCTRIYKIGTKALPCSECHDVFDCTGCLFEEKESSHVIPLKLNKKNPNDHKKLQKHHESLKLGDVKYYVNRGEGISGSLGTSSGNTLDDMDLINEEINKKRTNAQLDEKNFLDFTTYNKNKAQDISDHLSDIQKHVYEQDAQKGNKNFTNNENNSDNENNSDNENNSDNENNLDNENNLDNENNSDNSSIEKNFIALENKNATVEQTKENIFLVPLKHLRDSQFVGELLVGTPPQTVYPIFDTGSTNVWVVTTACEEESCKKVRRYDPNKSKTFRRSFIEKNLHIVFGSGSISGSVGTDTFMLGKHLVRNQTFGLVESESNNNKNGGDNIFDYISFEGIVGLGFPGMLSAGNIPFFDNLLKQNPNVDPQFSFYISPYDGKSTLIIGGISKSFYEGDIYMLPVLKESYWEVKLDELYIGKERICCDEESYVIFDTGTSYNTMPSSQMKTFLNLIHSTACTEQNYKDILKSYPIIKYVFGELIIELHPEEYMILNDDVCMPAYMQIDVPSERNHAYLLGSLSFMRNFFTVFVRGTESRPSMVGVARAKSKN
Chain of Cathepsin D (P07339 65-162 limits assumed): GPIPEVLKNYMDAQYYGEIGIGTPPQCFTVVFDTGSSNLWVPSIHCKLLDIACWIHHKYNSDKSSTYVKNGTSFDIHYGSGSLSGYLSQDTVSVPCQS
Chain of Cathepsin D (P07339 169-412 limits assumed): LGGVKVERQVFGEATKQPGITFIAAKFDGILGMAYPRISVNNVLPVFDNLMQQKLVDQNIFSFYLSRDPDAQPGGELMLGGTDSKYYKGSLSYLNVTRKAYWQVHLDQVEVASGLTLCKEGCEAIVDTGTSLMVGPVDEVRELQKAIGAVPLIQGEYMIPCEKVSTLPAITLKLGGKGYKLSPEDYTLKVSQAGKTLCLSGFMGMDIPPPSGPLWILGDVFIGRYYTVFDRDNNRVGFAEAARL

SMILES	solubility [1] [µM]	IC50 [2] [nM]	IC50 [3] [nM]	intrinsic clearance [4] [µL/min]	inhibition [5] [%]	logD [6]	IC50 [7] [nM]	IC50 [8] [nM]	IC50 [9] [nM]	IC50 [10] [nM]	IC50 [11] [nM]	IC50 [12] [nM]	IC50 [13] [nM]	IC50 [14] [nM]	IC50 [15] [nM]	IC50 [16] [nM]	IC50 [17] [nM]	IC50 [18] [nM]
C[C@@]1(c2cccc(Nc3ccc(C4CC4)nc3)c2Cl)CC(=O)N(C2CCOCC2)C(=N)N1	1161 (≈ 527 µg/mL)	37	1190	3	52	2.1	1070	–	–	–	–	–	–	–	–	–	–	–
[H]/N=C1\N[C@](C)(c2cccc(Nc3cnc(C4CC4)nc3)c2Cl)CC(=O)N1[C@H]1CCO[C@@H](C)C1	1372 (≈ 643 µg/mL)	9	215	4	–	2	2360	> 10000	–	–	–	–	–	–	–	–	–	–
C[C@@]1(c2cccc(NC(=O)c3ccccc3)c2Cl)CC(=O)N(C2CCOCC2)C(=N)N1	–	32	> 10000	4	–	1.2	–	–	> 5000	–	–	–	–	–	–	–	–	–
C[C@@]1(c2cccc(Nc3ccccc3)c2Cl)CC(=O)N(C2CCOCC2)C(=N)N1	1057 (≈ 436 µg/mL)	15	58	28	–	2.2	–	–	2700	78	82	62	107	96	87	112	31	83
